Assay results: PubChem BioAssay (NCI)
Where “and” joins values, the source holds several entries; their conditions need not be identical. Identical values can stand only once.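 Compound exposure: 48 hours, 5 concentrations, 96-well plates. GI50 is the concentration that inhibits growth by half. TGI denotes the concentration required for complete inhibition of growth.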 Where a SMILES comes first, the peptide text is derived from it. [ ]: non-standard residue; d: D form. Phe(F5) = N[CH](Cc1c(F)c(F)c(F)c(F)c1F)C(=O)O

Key:
Assay in all cases: NCI anticancer screen, dose series, 48 h
MDA-MB-435 = test system: MDA-MB-435
OVCAR-3 ovarian = test system: OVCAR-3 ovarian
HCT-15 colon = test system: HCT-15 colon
HT29 colon = test system: HT29 colon
SF-295 CNS = test system: SF-295 CNS
IGROV1 ovarian = test system: IGROV1 ovarian
SN12C renal = test system: SN12C renal
COLO 205 colon = test system: COLO 205 colon
SNB-19 CNS = test system: SNB-19 CNS
M14 melanoma = test system: M14 melanoma

SMILES	GI50 (MDA-MB-435)	TGI (MDA-MB-435)	GI50 (OVCAR-3 ovarian)	TGI (OVCAR-3 ovarian)	GI50 (HCT-15 colon)	TGI (HCT-15 colon)	GI50 (HT29 colon)	TGI (HT29 colon)	GI50 (SF-295 CNS)	TGI (SF-295 CNS)	GI50 (IGROV1 ovarian)	TGI (IGROV1 ovarian)	GI50 (SN12C renal)	TGI (SN12C renal)	GI50 (COLO 205 colon)	TGI (COLO 205 colon)	GI50 (SNB-19 CNS)	TGI (SNB-19 CNS)	GI50 (M14 melanoma)	TGI (M14 melanoma)
C[C@]12CC[C@H]3[C@@H](CCC4=CC(=O)CC[C@@H]43)[C@@H]1CC[C@@H]2OC(=O)N(CCCl)N=O	3.54 µM	32.5 µM	7.83 µM	21.8 µM	8.45 µM	31.3 µM	3.7 µM	13.7 µM	0.121 µM	> 44.6 µM	0.172 µM	15.8 µM	1.69 µM	21.4 µM	3.1 µM	20 µM	0.265 µM	24.3 µM	4.27 µM	21.4 µM
CC(=O)OC1c2ccccc2CC2(OC(C)=O)c3ccccc3C12 (stereo unspecified)		> 100 µM		> 100 µM		> 100 µM		> 100 µM		> 100 µM		> 100 µM		> 100 µM		> 100 µM		> 100 µM		> 100 µM
CCN=C1C=CC(=C(c2ccc(N(C)C)cc2)c2ccc(N(C)C)cc2)c2ccccc21	0.0705 µM	0.408 µM	0.0301 µM	0.121 µM	0.294 µM	1.31 µM	0.0326 µM	0.207 µM	0.122 µM	0.423 µM	0.0701 µM	0.711 µM	0.035 µM	1.37 µM	0.0508 µM	0.183 µM	0.217 µM	4.21 µM	0.107 µM	0.372 µM
Cn1c(=O)c2[nH]c(/N=N/N3CCN(CCO)CC3)nc2n(C)c1=O		> 100 µM		> 100 µM		> 100 µM		> 100 µM		> 100 µM		> 100 µM		> 100 µM		> 100 µM		> 100 µM		> 100 µM
O=C1C(Cl)=C(N/N=c2/[nH][nH]/c(=N/NC3=C(Cl)C(=O)c4ccccc4C3=O)c3ccccc23)C(=O)c2ccccc21	17.8 µM	36.6 µM	15.6 µM	36.4 µM	19.8 µM	> 100 µM	24.9 µM	53.6 µM	14.2 µM	30.5 µM	17.7 µM	48.5 µM	15 µM	29.5 µM	16.1 µM	32.9 µM	14.6 µM	31.1 µM	16.9 µM	34.8 µM
N=C(N)c1nn(C2OC(CO)C(O)C2O)c2nc[nH]c(=O)c12 (stereo unspecified)	0.311 µM	1.16 µM	0.836 µM	2.9 µM	0.587 µM	5.71 µM	2.11 µM	11.7 µM	0.643 µM	3.26 µM	1.19 µM	3.81 µM	0.315 µM	2.37 µM	1.01 µM	3.26 µM	2.34 µM	8.71 µM	0.454 µM	1.75 µM
N#CSc1ncnc2nc[nH]c12	3.65 µM	> 100 µM	1.66 µM	> 31.6 µM	8.82 µM	> 100 µM	9.69 µM	> 100 µM	2.53 µM	> 72.6 µM	35.1 µM	> 100 µM	51.7 µM	> 100 µM	5.31 µM	22 µM	> 100 µM	> 100 µM	1.78 µM	> 100 µM
CCOC(=O)Cc1c[nH]c(=S)[nH]c1=O	> 100 µM	> 100 µM	> 100 µM	> 100 µM	> 100 µM	> 100 µM	> 100 µM	> 100 µM	> 100 µM	> 100 µM	> 100 µM	> 100 µM	> 100 µM	> 100 µM	> 100 µM	> 100 µM	> 100 µM	> 100 µM	> 100 µM	> 100 µM
C=C(C)[C@@H]1CC=C(CO)CC1		> 10 µM	> 10 µM	> 10 µM and 736 µM	> 10 µM	> 10 µM and 790 µM	> 10 µM	> 10 µM and 702 µM	> 10 µM	> 10 µM and 941 µM	> 10 µM	> 10 µM and 1260 µM	> 10 µM	> 10 µM and 1220 µM	> 10 µM	> 10 µM and 768 µM	> 10 µM	> 10 µM and 1010 µM	> 10 µM	> 10 µM and 1410 µM
CCc1ccc(NC(=O)Nc2c[nH]c3ccccc23)cc1	22.6 µM	> 49.5 µM	2.47 µM	> 32.2 µM	17.8 µM	> 55.2 µM	> 43.5 µM	> 61.2 µM	23.8 µM	> 56 µM	5.72 µM	> 45.5 µM	2.22 µM	> 36.2 µM	> 38.9 µM	> 54 µM	22.7 µM	> 58.3 µM	> 39.8 µM	> 57 µM
CC1(C)CCC2(C(=O)OC3OC(CO)C(O)C(O)C3O)CC[C@]3(C)C(=CCC4C5(C)CC[C@H](OC6OC(C(=O)O)C(O)C(O)C6O)C(C)(C)C5CCC43C)C2C1 (stereo partly specified)	2.52 µM	> 50 µM	3.27 µM	> 50 µM	6.73 µM	13.3 µM	2.07 µM	> 50 µM	2.56 µM	> 50 µM	1.7 µM	> 50 µM	1.39 µM	3.55 µM	1.36 µM	3.55 µM	1.44 µM	8.39 µM	1.47 µM	4.33 µM
COc1cc2nc(Cl)nc(Nc3cccc(C(=O)/C=C/c4ccccc4)c3)c2cc1OC	3.4 µM	28.9 µM	3.75 µM	31.3 µM	2.88 µM	> 100 µM	4.39 µM	> 100 µM		> 44.2 µM	4.45 µM	42.9 µM	3.98 µM	41.1 µM	11.4 µM	> 100 µM	2.96 µM	> 31.8 µM	5.01 µM	> 100 µM
Nc1ncnc2c1ccn2C1OC2COP(=O)(O)OC2C1O (stereo unspecified)		2.31 µM		> 96.3 µM		3.11 µM		11.7 µM		29.5 µM		> 31 µM		12.7 µM		3.99 µM		> 75.9 µM		1.54 µM
CCN(CC)c1ccc(/C=C/c2cc(C)c3ccccc3n2)cc1	0.328 µM	1.9 µM	1.82 µM	4.78 µM	2.27 µM	26.4 µM	2.41 µM	7.39 µM	1.8 µM	5.72 µM	2.81 µM	25.7 µM	7.27 µM	> 100 µM	2.14 µM	5.23 µM	5.92 µM	> 100 µM	3.42 µM	13.6 µM
CC12CCC=CC1CCC1C2CCC2(C)C(c3ccc(=O)oc3)CCC12O (stereo unspecified)	0.108 µM	0.528 µM	0.0614 µM	0.258 µM	0.0923 µM	0.428 µM	0.0516 µM	0.801 µM	0.044 µM	0.248 µM	0.0688 µM	1.36 µM	0.0422 µM	0.571 µM	0.333 µM	1.56 µM	0.215 µM	1.23 µM	0.154 µM	0.519 µM
COC(=O)C(CC(C)C)NC(=O)C(Cc1cnc[nH]1)NC(=O)CNC(=O)C(NC(=O)C(C)NC(=O)C(Cc1c[nH]c2ccccc12)NC(=O)C(CCC(=O)O)NC(=O)C(N)Cc1c(F)c(F)c(F)c(F)c1F)C(C)C (stereo unspecified) (H-[Phe(F5)]EWAVGHL-OMe; configuration not given here)		> 12.5 µM	> 100 µM	> 100 µM	> 100 µM	> 100 µM	> 100 µM	> 100 µM	> 100 µM	> 100 µM	> 100 µM	> 100 µM	> 100 µM	> 100 µM	> 100 µM	> 100 µM		> 100 µM	> 100 µM	> 100 µM
COc1cccc(C2=C(c3cn(C)c4ccccc34)C(=O)NC2=O)c1	6.38 µM	> 25 µM	9.05 µM	> 25 µM	5.57 µM	> 25 µM	7.96 µM	> 25 µM	11 µM	> 25 µM	21.8 µM	> 25 µM	12.5 µM	> 25 µM	9.92 µM	> 25 µM	> 25 µM	> 25 µM	18.9 µM	> 25 µM
Cc1cc(N2CCCCC2)nc(N(CCNc2ccnc3cc(Cl)ccc23)Cc2ccco2)n1	1.8 µM	3.52 µM	1.74 µM	3.14 µM	1.44 µM	3.3 µM	1.05 µM	2.84 µM	1.51 µM	3.12 µM	1.28 µM	3.65 µM	1.83 µM	3.56 µM	1.49 µM	3.25 µM	3.26 µM	12 µM	1.82 µM	3.61 µM
Fc1ccc(-c2nc3n(c2-c2ccncc2)CCS3)cc1	> 25 µM	> 25 µM	> 25 µM	> 25 µM	> 25 µM	> 25 µM	> 25 µM	> 25 µM	> 25 µM	> 25 µM	> 25 µM	> 25 µM	> 25 µM	> 25 µM	> 25 µM	> 25 µM	> 25 µM	> 25 µM	> 25 µM	> 25 µM
COc1cc2c(cc1OC)-c1ccc3cc4c(cc3c1N(CCN1CCCC1)C2)OCO4	1.36 µM	6.13 µM	0.854 µM	2.23 µM	1.5 µM	3.4 µM	0.313 µM	1.47 µM	0.441 µM	3.1 µM	0.517 µM	2.37 µM	0.345 µM	1.43 µM	0.299 µM	1.56 µM	0.543 µM	1.85 µM	0.574 µM	1.89 µM
C=C1C(=O)O[C@@H]2C1CC(=O)C(C)CC/C=C(\C)CCC[C@H](C)[C@H]2OC(C)=O (stereo partly specified)	14.7 µM	28 µM	10.2 µM	21.8 µM	13.7 µM	30.4 µM	5.28 µM	> 100 µM	19.8 µM	36.2 µM	10.1 µM	26.3 µM	5.46 µM	21.6 µM	5.34 µM	> 100 µM	25.5 µM	> 100 µM	4.24 µM	16 µM
O=c1cc(CNc2cc(F)cc(F)c2)c2ccc(I)cc2[nH]1	0.108 µM	0.499 µM	0.336 µM	39.6 µM	0.387 µM	> 100 µM	0.361 µM	> 100 µM	0.441 µM	> 100 µM	2.56 µM	> 100 µM	0.798 µM	> 100 µM	0.606 µM	> 100 µM	0.637 µM	> 100 µM	0.52 µM	> 100 µM
O=S(=O)(c1ccc(NC(=S)NCc2cccnc2)cc1)N1CCCCC1	3.04 µM	> 100 µM	52.6 µM	> 100 µM	13.6 µM	> 100 µM	90.5 µM	> 100 µM	13 µM	> 100 µM	23.3 µM	> 100 µM	0.21 µM	> 100 µM	8.63 µM	> 100 µM	9.5 µM	> 100 µM	3.9 µM	> 100 µM
Fc1ccc2[nH]cc(Cc3c[nH]c4ccc(F)cc34)c2c1	7.46 µM	24.9 µM	19.5 µM	52.8 µM	17.5 µM	55.6 µM	31.4 µM	> 100 µM	20.6 µM	47.9 µM	16.9 µM	41.6 µM	21.6 µM	51.4 µM	28.2 µM	95.6 µM	20.2 µM	51.9 µM	20.2 µM	42.9 µM
CC(C)(O)c1ccc(N2CCN(c3nnc(Cc4ccccc4)c4ccccc34)CC2)nc1	10 µM	22.8 µM	10.4 µM	47.5 µM	8.31 µM	28.7 µM	12 µM	37.7 µM	4.16 µM	16.7 µM	12.1 µM	28.4 µM	7.32 µM	33 µM	5.41 µM	16 µM	15.8 µM	67.1 µM	8.86 µM	23 µM
